Reference: ChEMBL document CHEMBL4190372, “Discovery of a Novel Oral Glucocorticoid Receptor Modulator (AZD9567) with Improved Side Effect Profile” (J Med Chem, 2018)
Converted amounts (≈) assume the structure as drawn.

How the values were obtained:
Glucocorticoid receptor [1] = molecular target: T1, Glucocorticoid receptor (Homo sapiens, UniProt P04150)
T1 sequence (P04150 whole entry): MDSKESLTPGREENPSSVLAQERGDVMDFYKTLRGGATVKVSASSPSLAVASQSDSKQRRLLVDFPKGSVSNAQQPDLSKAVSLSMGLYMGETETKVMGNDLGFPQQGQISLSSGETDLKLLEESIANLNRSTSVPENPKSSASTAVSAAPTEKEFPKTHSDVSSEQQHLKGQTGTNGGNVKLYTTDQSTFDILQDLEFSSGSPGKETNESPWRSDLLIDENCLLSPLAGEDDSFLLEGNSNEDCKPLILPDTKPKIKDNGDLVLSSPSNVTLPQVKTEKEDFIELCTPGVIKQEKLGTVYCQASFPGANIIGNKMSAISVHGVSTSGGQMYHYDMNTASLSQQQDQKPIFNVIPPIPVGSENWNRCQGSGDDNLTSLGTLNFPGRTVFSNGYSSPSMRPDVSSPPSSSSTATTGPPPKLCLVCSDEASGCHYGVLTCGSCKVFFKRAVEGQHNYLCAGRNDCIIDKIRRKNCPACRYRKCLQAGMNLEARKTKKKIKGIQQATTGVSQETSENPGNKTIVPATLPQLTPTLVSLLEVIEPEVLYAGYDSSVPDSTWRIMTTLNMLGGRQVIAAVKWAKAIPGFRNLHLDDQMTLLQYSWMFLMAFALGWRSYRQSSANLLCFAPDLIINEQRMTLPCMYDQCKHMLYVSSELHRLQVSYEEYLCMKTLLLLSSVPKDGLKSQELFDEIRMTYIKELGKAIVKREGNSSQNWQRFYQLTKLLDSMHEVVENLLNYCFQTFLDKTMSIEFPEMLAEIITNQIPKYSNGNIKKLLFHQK
Description: Transactivation activity at glucocorticoid receptor (unknown origin) expressed in human ChaGoK1 cells incubated for 24 hrs by beta-galactosidase reporter gene assay

[2] = Aqueous solubility of the compound; assay type: physicochemical
Glucocorticoid receptor [3] = molecular target: T1, Glucocorticoid receptor; remark: listed apart in the source
Description: Transrepression activity at glucocorticoid receptor (unknown origin) expressed in human ChaGoK1 cells assessed as inhibition of PMA-stimulated gene expression incubated for 24 hrs by beta-galactosidase reporter gene assay

Glucocorticoid receptor [4] = molecular target: T1, Glucocorticoid receptor; assay: Displacement of fluormone RED from human full length glucocorticoid receptor after 4 hrs by fluorescence polarization assay
Glucocorticoid receptor [5] = molecular target: T1, Glucocorticoid receptor; assay: Antagonist activity at glucocorticoid receptor (unknown origin) expressed in human ChaGoK1 cells assessed as inhibition of dexamethasone induced transactivation incubated for 24 hrs by beta-galactosidase reporter gene assay; assay type: cell-based
[6] = Intrinsic clearance in rat hepatocytes assessed per million cells; assay type: ADME, cell-based, Hepatocyte; conditions: read-out: CLH
[7] = Clearance in rat; assay type: ADME, organism-based; conditions: in vivo
Glucocorticoid receptor [8] = molecular target: T1, Glucocorticoid receptor; conditions: blood
Description: Therapeutic index, ratio of fIC20 for transrepression of GR in cryopreserved human fetal osteoblasts assessed as inhibition of OPG mRNA expression to fIC30 for transrepression of GR in human whole blood assessed as inhibition of LPS-induced TNF-alpha release

[9] = molecular target: T2, Glucocorticoid receptor (Homo sapiens) (UniProt P04150)
T2 sequence (whole entry): T1 sequence (P04150 whole entry)
Description: (§1) Transrepression of GR in human whole blood assessed as inhibition of LPS-induced TNF-alpha release preincubated for 45 mins followed by LPS addition after 18 hrs by AlphaLISA method

Glucocorticoid receptor [10] = molecular target: T1, Glucocorticoid receptor; remark: listed apart in the source
Description: as §1

Hepatocyte [11] = assay: Stability in human hepatocytes; assay type: ADME, cell-based
[12] = molecular target: T2, Glucocorticoid receptor (Homo sapiens); remark: listed apart in the source
Description: Transrepression of GR in cryopreserved human fetal osteoblasts assessed as inhibition of OPG mRNA expression after 4 hrs by RT-qPCR analysis

Hepatocyte [13] = assay: Stability in rat hepatocytes; assay type: ADME, cell-based
Glucocorticoid receptor [14] = molecular target: T1, Glucocorticoid receptor; assay: Transactivation of GR in cryopreserved human primary hepatocytes assessed as upregulation of TAT mRNA expression level up to 1 uM after 18 hrs by RT-qPCR analysis
[15] = Drug metabolism in rat hepatocytes assessed as N-((1R,2S)-1-(3-chloro-4-cyanophenoxy)-1-(6-hydroxypyridin-3-yl)propan-2-yl)-2,2-difluoropropanamide formation; assay type: ADME, cell-based, Hepatocyte
[16] = Drug metabolism in human hepatocytes assessed as N-((1R,2S)-1-(3-chloro-4-cyanophenoxy)-1-(6-hydroxypyridin-3-yl)propan-2-yl)-2,2-difluoropropanamide formation; assay type: ADME, cell-based, Hepatocyte

EC50 (Glucocorticoid receptor [1]) [nM]	solubility ([2]; aqueous, read-out: solubility) [µM]	IC50 (Glucocorticoid receptor [3]) [nM]	IC50 (Glucocorticoid receptor [4]) [nM]	IC50 (Glucocorticoid receptor [5]) [nM]	Compound	further results
110	11 (≈ 5.72 µg/mL)	27	7.2	–	CC(C)[C@H](NC(=O)C(C)(F)F)[C@H](Oc1ccc2c(cnn2-c2cc(C#N)c(=O)n(C)c2)c1)c1ccccc1	–
3.9	< 0.08	< 0.34	< 14	13	CC(C)[C@H](NC(=O)C(C)(F)F)[C@H](Oc1ccc2c(cnn2-c2ccc(F)cc2)c1)c1ccccc1	–
21	430 (≈ 181 µg/mL)	7.8	< 4.1	–	C[C@H](NC(=O)C(C)(F)F)[C@H](Oc1ccc(C#N)cc1Cl)c1cnc(C2CC2)nc1	hepatocyte CLint [6]: 3.4 µL/min/1e6 cells; clearance [7]: 7.3 mL/min/kg
–	86 (≈ 42.6 µg/mL)	21	14	221	N#Cc1ccc(O[C@H](c2cnc(C3CC3)nc2)[C@@H](NC(=O)C(F)(F)F)C2CC2)c(Br)c1	TI (Glucocorticoid receptor [8]): 0.014; fIC30 [9]: 36 nM; IC50 (Glucocorticoid receptor [10]): 340 nM; Stability (Hepatocyte [11]): Stable; fIC20 [12]: 0.5 nM; Stability (Hepatocyte [13]): Stable
–	51 (≈ 24.5 µg/mL)	–	–	–	CC[C@H](NC(=O)C(C)(F)F)[C@H](Oc1ccc2c(cnn2-c2ccc(=O)n(C)c2)c1)c1ccccc1	–
–	22 (≈ 10.9 µg/mL)	–	–	–	CCC[C@H](NC(=O)C(C)(F)F)[C@H](Oc1ccc2c(cnn2-c2ccc(=O)n(C)c2)c1)c1ccccc1	–
3.5	0.9 (≈ 0.484 µg/mL)	1.6	16	270	Cc1nnc(C(=O)N[C@@H](C(C)O)[C@H](Oc2ccc3c(cnn3-c3ccc(F)cc3)c2)c2cc(F)cc(F)c2)o1 (single isomer, unassigned)	Activity (Glucocorticoid receptor [14]): Not Active; TI (Glucocorticoid receptor [8]): 0.076; fIC30 [9]: 0.53 nM; IC50 (Glucocorticoid receptor [10]): 180 nM; fIC20 [12]: 0.04 nM; Stability (Hepatocyte [13]): Stable
–	250 (≈ 124 µg/mL)	–	–	–	CC(O)[C@H](NC(=O)C(C)(F)F)[C@H](Oc1ccc2c(cnn2-c2ccc(=O)n(C)c2)c1)c1ccccc1 (some centres not stated)	–
5.6	9.6 (≈ 5.12 µg/mL)	3	< 3	114	CC(C)[C@H](NC(=O)C(F)(F)F)[C@H](Oc1ccc2c(cnn2-c2ccc(=O)n(C)c2)c1)c1cccc(Cl)c1	TI (Glucocorticoid receptor [8]): 0.58; fIC30 [9]: 1.6 nM; IC50 (Glucocorticoid receptor [10]): 420 nM; fIC20 [12]: 0.92 nM
54	110 (≈ 53.2 µg/mL)	9.6	9.3	560	CC[C@H](NC(=O)C(F)(F)F)[C@H](Oc1ccc(C#N)cc1Br)c1cnc(C2CC2)nc1	Stability (Hepatocyte [11]): Stable; Stability (Hepatocyte [13]): Stable
27	160 (≈ 79.1 µg/mL)	11	6.1	–	CC(C)[C@H](NC(=O)C(C)(F)F)[C@H](Oc1ccc2c(cnn2-c2cccn(C)c2=O)c1)c1ccccc1	–
2.3	140 (≈ 65.3 µg/mL)	1.6	–	–	C[C@H](NC(=O)C(C)(F)F)[C@H](Oc1ccc2c(cnn2-c2ccc(=O)n(C)c2)c1)c1ccccc1	–
3.5	< 0.01	0.57	18	70	COc1ccc([C@@H](Oc2ccc3c(cnn3-c3ccc(F)cc3)c2)[C@@H](NC(=O)C(C)(F)F)C(C)C)cn1	–
2.7	21 (≈ 11.1 µg/mL)	2.2	4.7	23	CC(C)[C@H](NC(=O)C(C)(F)F)[C@H](Oc1ccc2c(cnn2-c2ccc(=O)n(C)c2)c1)c1cc(F)cc(F)c1	TI (Glucocorticoid receptor [8]): 0.17; fIC30 [9]: 0.7 nM; IC50 (Glucocorticoid receptor [10]): 120 nM; fIC20 [12]: 0.12 nM
–	6.9 (≈ 2.96 µg/mL)	–	–	–	CC#C[C@]1(O)CC[C@H]2[C@@H]3CCC4=CC(=O)CCC4=C3[C@@H](c3ccc(N(C)C)cc3)C[C@@]21C [MIFEPRISTONE]	–
–	20 (≈ 10.1 µg/mL)	–	–	–	Cn1cc(-n2ncc3cc(O[C@H](c4ccccc4)[C@H](CC4CC4)NC(=O)C(C)(F)F)ccc32)ccc1=O	–
33	100 (≈ 41 µg/mL)	9.3	< 4	–	COc1ccc([C@@H](Oc2ccc(C#N)c(Cl)c2)[C@H](C)NC(=O)C(C)(F)F)cn1	Drug metabolism [15]: Metabolite_Detected; Drug metabolism [16]: Metabolite_Detected
–	0.96 (≈ 0.452 µg/mL)	39	–	–	CC(C)[C@H](NC(=O)C(C)(F)F)[C@H](Oc1ccc2c(cnn2-c2ccns2)c1)c1ccccc1	–

EC50 (Glucocorticoid receptor [1]) [nM]	solubility ([2]; aqueous, read-out: solubility) [µM]	IC50 (Glucocorticoid receptor [3]) [nM]	IC50 (Glucocorticoid receptor [4]) [nM]	IC50 (Glucocorticoid receptor [5]) [nM]	Compound	further results
–	< 0.5	–	57	–	COc1ccc(-n2ncc3cc(O[C@H](c4ccccc4)[C@@H](NC(=O)C(C)(F)F)C(C)C)ccc32)cn1	–
87	5.1 (≈ 2.53 µg/mL)	51	–	–	CC(C)[C@H](NC(=O)C(C)(F)F)[C@H](Oc1ccc2c(cnn2-c2cnc(=O)n(C)c2)c1)c1ccccc1	–
23	97 (≈ 45.5 µg/mL)	2.5	2.4	–	C[C@H](NC(=O)C(F)(F)F)[C@H](Oc1ccc(C#N)cc1Br)c1cnc(C2CC2)nc1	Stability (Hepatocyte [11]): Stable; Stability (Hepatocyte [13]): Stable
–	1 (≈ 0.461 µg/mL)	–	–	–	COc1ccc([C@@H](Oc2ccc3c(cnn3-c3ccc(F)cc3)c2)[C@H](C)NC(=O)C2CC2)cn1	–
–	18 (≈ 9.74 µg/mL)	–	160	516	CC(C)(C)OC[C@H](NC(=O)C(F)(F)F)[C@H](Oc1ccc(C#N)cc1Br)c1cnc(C2CC2)nc1	Stability (Hepatocyte [11]): Stable; Stability (Hepatocyte [13]): Stable
2.9	10 (≈ 5.29 µg/mL)	1.7	2.6	324	CC(C)[C@H](NC(=O)C(C)(F)F)[C@H](Oc1ccc2c(cnn2-c2ccc(=O)n(C)c2)c1)c1cccc(Cl)c1	–
6.4	110 (≈ 51.2 µg/mL)	1.1	2.4	–	C[C@H](NC(=O)C(C)(F)F)[C@H](Oc1ccc(C#N)cc1Br)c1cnc(C2CC2)nc1	Stability (Hepatocyte [11]): Stable; Stability (Hepatocyte [13]): Stable
18	14 (≈ 7.18 µg/mL)	5.6	< 3.2	301	CC(C)[C@H](NC(=O)C(C)(F)F)[C@H](Oc1ccc2c(cnn2-c2cc(F)c(=O)n(C)c2)c1)c1ccccc1	–
4.8	3.2 (≈ 1.58 µg/mL)	0.69	< 7.2	8.9	Cc1ncccc1NC(=O)c1ccc2c(c1)CC[C@@H]1C[C@@](O)(C(F)(F)F)CC[C@@]21Cc1ccccc1 [DAGROCORAT]	TI (Glucocorticoid receptor [8]): 0.029; fIC30 [9]: 2.3 nM; IC50 (Glucocorticoid receptor [10]): 35 nM; fIC20 [12]: 0.0667 nM
–	< 0.01	–	–	–	COc1ccc([C@@H](Oc2ccc3c(cnn3-c3ccc(F)cc3)c2)[C@H](COC(C)(C)C)NC(=O)C(C)(F)F)cn1	–
–	> 730	–	42	–	N#Cc1ccc(O[C@H](c2cnc(C3CC3)nc2)[C@H](CO)NC(=O)C(F)(F)F)c(Br)c1	–
–	48 (≈ 23.6 µg/mL)	–	–	–	Cn1cc(-n2ncc3cc(O[C@H](c4ccccc4)[C@@H](NC(=O)C(C)(F)F)C4CC4)ccc32)ccc1=O	–
5.4	< 0.1	< 0.42	16	25	CC(C)[C@H](NC(=O)C(F)(F)F)[C@H](Oc1ccc2c(cnn2-c2ccc(F)cc2)c1)c1ccccc1	–
–	290 (≈ 109 µg/mL)	70	< 6.8	–	COc1ccc([C@@H](Oc2ccc(C#N)cc2)[C@H](C)NC(=O)C(C)(F)F)cn1	–
29	5.8 (≈ 2.73 µg/mL)	3.3	52	131	CC(C)[C@H](NC(=O)C(C)(F)F)[C@H](Oc1ccc2c(cnn2-c2cscn2)c1)c1ccccc1	–
8.7	< 0.1	2	32	92	COc1ccc([C@@H](Oc2ccc3c(cnn3-c3ccc(F)cc3)c2)[C@H](Cc2ccccc2)NC(=O)C(C)(F)F)cn1	–
–	–	–	–	–	CCS(=O)(=O)c1cc2cc(C[C@](O)(CC(C)(C)c3ccc(F)cc3C(N)=O)C(F)(F)F)[nH]c2cn1 [BI 653048]	solubility ([2]; buffer): 160 µM (≈ 82.5 µg/mL)
43	85 (≈ 34.8 µg/mL)	16	7.1	–	COc1ccc([C@@H](Oc2ccc(C#N)cc2Cl)[C@H](C)NC(=O)C(C)(F)F)cn1	hepatocyte CLint [6]: 93 µL/min/1e6 cells; clearance [7]: 22 mL/min/kg
